Source: patent US6339160B1 (priority 1997, dated 2002)

How the values were obtained:
[1] = target: Adamalysin II (Crotalus adamanteus, UniProt P34179); assay: biochemical
[2] = target: T1, Gelatinase A (MMP-2) (Homo sapiens, UniProt P08253); assay: Inhibition of the human enzyme Gelatinase A (MMP-2), fluorescent substrate; assay type: biochemical; details: expressed qualitatively; compounds incubated 3 hours at room temperature with enzyme before substrate
T1 construct: G. Murphy (Strangeways Labs., Cambridge, UK); host or cells: human cultures
T1 sequence (P08253 110-660): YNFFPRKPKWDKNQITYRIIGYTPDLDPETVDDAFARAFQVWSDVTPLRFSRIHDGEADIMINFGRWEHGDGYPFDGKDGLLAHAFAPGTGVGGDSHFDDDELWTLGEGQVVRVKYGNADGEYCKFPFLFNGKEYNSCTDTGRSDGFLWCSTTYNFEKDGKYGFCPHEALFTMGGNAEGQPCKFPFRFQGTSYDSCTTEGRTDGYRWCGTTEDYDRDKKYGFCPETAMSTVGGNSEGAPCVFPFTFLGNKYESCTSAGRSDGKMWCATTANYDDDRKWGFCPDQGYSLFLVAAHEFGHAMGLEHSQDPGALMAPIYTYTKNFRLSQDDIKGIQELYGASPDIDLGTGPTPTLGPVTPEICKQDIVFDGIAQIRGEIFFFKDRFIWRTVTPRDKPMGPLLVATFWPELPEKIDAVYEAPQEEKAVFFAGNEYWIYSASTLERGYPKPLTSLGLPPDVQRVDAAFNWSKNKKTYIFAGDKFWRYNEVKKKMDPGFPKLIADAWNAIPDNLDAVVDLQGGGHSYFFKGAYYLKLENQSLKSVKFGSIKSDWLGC
Method: (§1) The snythetized compounds were also tested on the enzyme of human orgin Gelatinase A, known also as MMP-2 (Matrix Metalloproteinase n. 2). The pure enzyme, extracted from human cultures and obtained from Pro. G. Murphy (Strangeways Labs., Cambridge, UK), was first activated with p-amino-mercuryacetate, and proteolytic activity was evidentiated with the use of an artificial fluorescent substratum MCA-PRO-LEU-GLY-LEU-DPA-ALA-ARG-NH2 (Strangeways Labs.), in spectrofluorimeter Perkin Elmer L 50B fixed at 328 nm for excitation and 393 nm for emission. To test inhibitory activity, synthetized compounds were incubated for 3 hours at room temperature in the presence of the enzyme, before adding the substratum.

[3] = target: T2, Collagenase from neutrophiles (MMP-8) (Homo sapiens, UniProt P22894); assay: Inhibition of human enzyme Collagenase from neutrophiles (MMP-8), fluorescent substrate; assay type: biochemical; details: expressed qualitatively; enzyme activated with p-aminomercuryacetate
T2 construct: G. Murphy (Strangeways Labs., Cambridge, UK); host or cells: human cell cultures
Method: as §1
The new synthetized derivatives were also tested on another zinc-dependent metalloproteinase of human orgin: the Collagenase from neutrophiles, also known as MMP-8 (Matrix Metalloproteinase N. 8). The pure enzyme extracted from human cell cultures and obtained from Prof. G. Murphy (Strangeways Labs., Cambridge, UK), was activated with p-aminomercuryacetate (2 hours at 37° C.), and enzymatic activity was followed by the spectrofluorimeter in the same way as described in the previous chapter.

T2 sequence (P22894 101-467): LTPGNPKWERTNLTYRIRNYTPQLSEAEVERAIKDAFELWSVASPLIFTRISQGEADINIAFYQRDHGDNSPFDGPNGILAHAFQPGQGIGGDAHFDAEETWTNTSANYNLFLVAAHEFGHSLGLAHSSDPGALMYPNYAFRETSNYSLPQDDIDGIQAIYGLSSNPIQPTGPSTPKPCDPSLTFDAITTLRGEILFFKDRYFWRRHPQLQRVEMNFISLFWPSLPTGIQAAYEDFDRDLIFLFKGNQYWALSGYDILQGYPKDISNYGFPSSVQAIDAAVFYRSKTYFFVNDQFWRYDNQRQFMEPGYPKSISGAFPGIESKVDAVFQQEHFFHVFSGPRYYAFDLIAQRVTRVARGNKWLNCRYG
Chain of Adamalysin II (P34179 whole entry, looked up): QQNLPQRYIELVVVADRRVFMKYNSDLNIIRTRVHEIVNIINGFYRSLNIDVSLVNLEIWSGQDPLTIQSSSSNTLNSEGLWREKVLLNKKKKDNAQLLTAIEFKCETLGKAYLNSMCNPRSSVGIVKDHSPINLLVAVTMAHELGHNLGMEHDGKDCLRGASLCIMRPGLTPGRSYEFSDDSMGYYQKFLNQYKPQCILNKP

Structure (SMILES) | IC50 [1] [nM] | INHIBITION [2] | INHIBITION [3]
CCOP(=O)(OCC)C(Cc1c[nH]c2ccccc12)NC(=O)[C@H](CC(C)C)NC(=O)c1ccco1 (stereo partly drawn) [Compound n.3a, N-[(furan-2-yl)carbonyl]-L-leucyne-(1)-phosphotryptophan diethylester] | 400 | Fair | Fair
CCOP(=O)(OCC)C(Cc1c[nH]c2ccccc12)NC(=O)[C@H](CC(C)C)NC(=O)[C@@H]1CSC(=O)N1 (stereo partly drawn) [Compound n.3f, N-{[(R)-(2-oxo-thiazolidine-4-yl)carbonyl]}-L-leucyl-(1)-phosphotryptophan diethylester] | 1000 | Fair | Good
CCOP(=O)(OCC)C(Cc1c[nH]c2ccccc12)NC(=O)[C@H](CC(C)C)NC(=O)[C@@H]1CCC(=O)O1 (stereo partly drawn) [Compound n.3e, N-{[(S)-(5-oxo-tetrahydrofuran-2-yl)carbonyl]}-L-leucyl-(1)-phosphotryptophan diethylester] | 550 | Fair | Fair
CCOP(=O)(OCC)C(Cc1c[nH]c2ccccc12)NC(=O)[C@H](CC(C)C)NC(=O)[C@@H]1CCCN1C(=O)OCc1ccccc1 (stereo partly drawn) [Compound n.3c, N-benzyloxycarbonyl-L-pyrolyl-L-eucyl-(1)-phosphtryptophan diethylester] | 22000 | Good | Good
CCOP(=O)(OCC)C(Cc1c[nH]c2ccccc12)NC(=O)[C@H](CC(C)C)NC(=O)c1ccc[nH]1 (stereo partly drawn) [Compound n.3b, N-[(Pyrrol-2-yl)carbonyl]-L-leucyl-(1)-phosphotryptophan diethylester] | 220 | Good | Good
CC(C)C[C@H](NC(=O)c1ccco1)C(=O)NC(Cc1c[nH]c2ccccc12)P(=O)(OCc1ccccc1)OCc1ccccc1 (stereo partly drawn) [Compound n.9, N-[(Furan-2-yl)carbonyl]-L-leucyl-(1)-phosphotryptophan dibenzylester] | 7200 | None | Fair
